The text below walks through data of patent US11299496B2, “Ligands for alpha-7 nicotinic acetylcholine receptors and methods of treating neurological and inflammatory conditions” (Northeastern University, priority 2014, dated 2022).

In this assay the target is T1, human alpha-7 nAChR (Homo sapiens, UniProt P36544).
T1 construct: expressed in transfected cells; host or cells: Xenopus laevis oocytes (cRNA injection)
Put plainly: Two-electrode voltage clamp of alpha-7 nAChR expressed in Xenopus oocytes (net charge). The class given is cell-based. As to conditions: for Charge Alone: compound alone acting as an allosteric agonist; for Charge Alone / Charge +C: area under the curve of current vs. time; for Charge +C: compound together with choline or ACh, includes PAM and ago-PAM activity. A digest of the protocol: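 Human α7 nAChR co-expressed with RIC-3 in Xenopus oocytes; two-electrode clamp at −60 mV, 12 s applications in Ringer's pH 7.3. Net charge integrated over 120 s from application, normalized to prior ACh controls; measured for compound alone and with choline or ACh; n≥4 oocytes.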

T1 sequence (P36544 23-502): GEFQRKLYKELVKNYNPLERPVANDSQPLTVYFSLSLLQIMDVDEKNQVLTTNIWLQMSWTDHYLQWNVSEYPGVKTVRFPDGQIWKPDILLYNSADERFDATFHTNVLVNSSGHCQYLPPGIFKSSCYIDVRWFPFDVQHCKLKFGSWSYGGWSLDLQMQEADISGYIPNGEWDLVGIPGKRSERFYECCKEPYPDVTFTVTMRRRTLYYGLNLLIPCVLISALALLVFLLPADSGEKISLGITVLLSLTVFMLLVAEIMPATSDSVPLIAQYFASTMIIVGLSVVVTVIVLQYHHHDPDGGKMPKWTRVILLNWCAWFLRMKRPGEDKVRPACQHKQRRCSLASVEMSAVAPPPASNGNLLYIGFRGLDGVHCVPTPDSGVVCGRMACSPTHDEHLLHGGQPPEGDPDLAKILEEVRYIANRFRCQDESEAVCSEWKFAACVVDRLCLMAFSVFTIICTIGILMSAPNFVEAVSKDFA

With `CCCNS(=O)(=O)c1ccc2c(c1)[C@H]1C=CC[C@H]1[C@H](c1c(C)c(C)cc(C)c1C)N2` (stereo in doubt) [Compound 111, N-propyl-4-(2,3,5,6-tetramethylphenyl)-3a,4,5,9b-tetrahydro-3H-cyclopenta[c]quinoline-8-sulfonamide], the “Charge Alone” value is listed as “Inactive” and the “Charge +C” value was “Inactive”.
`CCCNS(=O)(=O)c1ccc2c(c1)[C@H]1C=CC[C@H]1[C@@H](c1ccccc1)N2` (stereo in doubt) [Compound 112, 4-phenyl-N-propyl-3a,4,5,9b-tetrahydro-3H-cyclopenta[c]quinoline-8-sulfonamide]: the “Charge Alone” value is listed as “Inactive” and the “Charge +C” value is “Inactive”.
As to `CS(=O)(=O)Nc1ccc2c(c1)[C@H]1C=CC[C@H]1[C@@H](c1ccc(Br)cc1)N2` (stereo in doubt) [Compound 115, N-(4-(4-bromophenyl)-3a,4,5,9b-tetrahydro-3H-cyclopenta[c]quinolin-8-yl)methanesulfonamide], the “Charge Alone” value is “Inactive” and the “Charge +C” value is on record as “Inactive”.
`CC(=O)NS(=O)(=O)c1ccc2c(c1)[C@H]1C=CC[C@H]1[C@@H](c1ccc(Br)cc1)N2` (stereo in doubt) [Compound 116, N-((4-(4-bromophenyl)-3a,4,5,9b-tetrahydro-3H-cyclopenta[c]quinolin-8-yl)sulfonyl)acetamide]: the “Charge Alone” value is “Inactive” and the “Charge +C” value is “Inactive”.
Regarding `O=C(O)c1ccc2c(c1)[C@H]1C=CC[C@H]1[C@@H](c1ccc(Cl)cc1Cl)N2` [Compound 29, 4-(2,4-dichlorophenyl)-3a,4,5,9b-tetrahydro-3H-cyclopenta[c]quinoline-8-carboxylic acid], the “Charge Alone” value is “Inactive” and the “Charge +C” value is “Inactive”.
With `CC(=O)c1ccc2c(c1)[C@H]1C=CC[C@H]1[C@@H](c1cc3c(cc1Br)OCO3)N2` [Compound 30], the “Charge Alone” value is reported as “Inactive” and the “Charge +C” value was “Inactive”.
Consider `N#Cc1ccc([C@H]2Nc3ccc(S(N)(=O)=O)cc3[C@H]3C=CC[C@H]32)s1` [Compound 34, 4-(5-cyanothiophen-2-yl)-3a,4,5,9b-tetrahydro-3H-cyclopenta[c]quinoline-8-sulfonamide], for which the “Charge Alone” value is on record as “Insoluble” and the “Charge +C” value is “Insoluble”.
For `[N-]=[N+]=Nc1c(F)c(F)c([C@H]2Nc3ccc(S(N)(=O)=O)cc3[C@H]3C=CC[C@H]32)c(F)c1F` [Compound 43, (3aR,4S,9bS)-4-(4-azido-2,3,5,6-tetrafluorophenyl)-3a,4,5,9b-tetrahydro-3H-cyclopenta[c]quinoline-8-sulfonamide], the “Charge +C” value was determined as 5.5.
`NS(=O)(=O)c1ccc2c(c1)[C@H]1C=CC[C@H]1[C@@H](c1ccc(C3(C(F)(F)F)N=N3)cc1)N2` [Compound 44, (3aR,4S,9bS)-4-(4-(3-(trifluoromethyl)-3H-diazirin-3-yl)phenyl)-3a,4,5,9b-tetrahydro-3H-cyclopenta[c]quinoline-8-sulfonamide]: the “Charge Alone” value is listed as 14 and the “Charge +C” value worked out at 350.
Taken in the same sequence, the figures for `NS(=O)(=O)c1ccc2c(c1)[C@@H]1C=CC[C@@H]1[C@H](c1ccc(I)cc1)N2` [Compound 45, (3aS,4R,9bR)-4-(4-iodophenyl)-3a,4,5,9b-tetrahydro-3H-cyclopenta[c]quinoline-8-sulfonamide] were “Inactive” and “Inactive”.
Taken in the same sequence, the figures for `NS(=O)(=O)c1ccc2c(c1)[C@H]1C=CC[C@H]1[C@@H](c1ccc(I)cc1)N2` [Compound 46, (3aR,4S,9bS)-4-(4-iodophenyl)-3a,4,5,9b-tetrahydro-3H-cyclopenta[c]quinoline-8-sulfonamide] were 242 and 684.
On to `[N-]=[N+]=Nc1ccc([C@@H]2Nc3ccc(S(N)(=O)=O)cc3[C@@H]3C=CC[C@@H]32)cc1` [Compound 47, (3aS,4R,9bR)-4-(4-azidophenyl)-3a,4,5,9b-tetrahydro-3H-cyclopenta[c]quinoline-8-sulfonamide], for which the “Charge Alone” value is recorded as “Inactive” and the “Charge +C” value is “Inactive”.
As to `[N-]=[N+]=Nc1ccc([C@H]2Nc3ccc(S(N)(=O)=O)cc3[C@H]3C=CC[C@H]32)cc1` [Compound 48, (3aR,4S,9bS)-4-(4-azidophenyl)-3a,4,5,9b-tetrahydro-3H-cyclopenta[c]quinoline-8-sulfonamide], the “Charge Alone” value worked out at 61 and the “Charge +C” value was 764.
Consider `NS(=O)(=O)c1ccc2c(c1)[C@H]1C=CC[C@H]1[C@@H](c1ccc(OCc3ccccc3)cc1)N2` [Compound 50, (3aR,4S,9bS)-4-(4-(benzyloxy)phenyl)-3a,4,5,9b-tetrahydro-3H-cyclopenta[c]quinoline-8-sulfonamide], for which the “Charge Alone” value is listed as 20 and the “Charge +C” value came out at 67. For the same compound, the “'ago' component / ago-PAM activity” value (in words) is on record as “moderate ago-PAM activity”.
Turning to `NS(=O)(=O)c1ccc2c(c1)[C@H]1C=CC[C@H]1[C@@H](c1cccnc1)N2` [Compound 51, 4-(pyridin-3-yl)-3a,4,5,9b-tetrahydro-3H-cyclopenta[c]quinoline-8-sulfonamide], the “Charge +C” value amounted to 10.
With `O=S(=O)(c1ccc2c(c1)[C@H]1C=CC[C@H]1[C@@H](c1ccc(Br)cc1)N2)N1CCC1` [Compound 54, 8-(azetidin-1-ylsulfonyl)-4-(4-bromophenyl)-3a,4,5,9b-tetrahydro-3H-cyclopenta[c]quinolone], the “Charge Alone” value is listed as “Inactive” and the “Charge +C” value is given as “Inactive”.
As to `O=S(=O)(c1ccc2c(c1)[C@@H]1C=CC[C@@H]1[C@H](c1ccc(Br)cc1)N2)N1CCCC1` [Compound 56, (3aS,4R,9bR)-4-(4-bromophenyl)-8-(pyrrolidin-1-ylsulfonyl)-3a,4,5,9b-tetrahydro-3H-cyclopenta[c]quinolone], the “Charge Alone” value is on record as “Inactive” and the “Charge +C” value is given as “Inactive”.
For the compound `O=S(=O)(c1ccc2c(c1)[C@H]1C=CC[C@H]1[C@@H](c1ccc(Br)cc1)N2)N1CCCC1` [Compound 57, (3aR,4S,9bS)-4-(4-bromophenyl)-8-(pyrrolidin-1-ylsulfonyl)-3a,4,5,9b-tetrahydro-3H-cyclopenta[c]quinolone], the “Charge Alone” value is recorded as “Inactive” and the “Charge +C” value is “Inactive”.
As to `NS(=O)(=O)c1ccc2c(c1)C1C=CCC1C(c1ccc(C(=O)O)cc1)N2` (stereo not drawn) [Compound 58, 4-(8-sulfamoyl-3a,4,5,9b-tetrahydro-3H-cyclopenta[c]quinolin-4-yl)benzoic acid], the “Charge Alone” value was “Inactive” and the “Charge +C” value is “Inactive”.
Regarding `COC(=O)Nc1ccc([C@H]2Nc3ccc(S(N)(=O)=O)cc3[C@H]3C=CC[C@H]32)cc1` [Compound 59, methyl(4-(8-sulfamoyl-3a,4,5,9b-tetrahydro-3H-cyclopenta[c]quinolin-4-yl)phenyl)carbamate], the “Charge +C” value is 480.
On the same count and under the same terms, the value for `NS(=O)(=O)c1ccc2c(c1)[C@H]1C=CC[C@H]1[C@@H](c1cc(Br)sc1Br)N2` [Compound 67, (3aR,4S,9bS)-4-(2,5-dibromothiophen-3-yl)-3a,4,5,9b-tetrahydro-3H-cyclopenta[c]quinoline-8-sulfonamide] was 100.
Regarding `NS(=O)(=O)c1ccc2c(c1)[C@H]1C=CC[C@H]1[C@@H](c1ccc(CCCBr)cc1)N2` [Compound 71, 4-(4-(3-bromopropyl)phenyl)-3a,4,5,9b-tetrahydro-3H-cyclopenta[c]quinoline-8-sulfonamide], the “Charge Alone” value worked out at 1 and the “Charge +C” value is reported as 284.
On to `NS(=O)(=O)c1ccc2c(c1)[C@H]1C=CC[C@H]1[C@@H](c1ccc(Br)nc1)N2` [Compound 94, 4-(6-bromopyridin-3-yl)-3a,4,5,9b-tetrahydro-3H-cyclopenta[c]quinoline-8-sulfonamide], for which the “Charge Alone” value was determined as 29 and the “Charge +C” value is 348.
For `O=S(=O)(NC1CCC1)c1ccc2c(c1)[C@H]1C=CC[C@H]1[C@@H](c1ccc(Br)cc1)N2` [Compound 104, 4-(4-bromophenyl)-N-cyclobutyl-3a,4,5,9b-tetrahydro-3H-cyclopenta[c]quinoline-8-sulfonamide] the same measures were “Inactive” and “Inactive”.
Taken in the same sequence, the figures for `CCNS(=O)(=O)c1ccc2c(c1)[C@@H]1C=CC[C@@H]1[C@@H](c1ccc(Br)cc1)N2` [Compound 113] were “Inactive” and “Inactive”.
Taken in the same sequence, the figures for `CCNS(=O)(=O)c1ccc2c(c1)[C@H]1C=CC[C@H]1[C@@H](c1ccc(Br)cc1)N2` [Compound 114] were “Inactive” and “Inactive”.
For `CS(=O)(=O)c1ccc2c(c1)[C@H]1C=CC[C@H]1[C@@H](c1ccc(Br)cc1)N2` [Compound 117, 4-(4-bromophenyl)-8-(methylsulfonyl)-3a,4,5,9b-tetrahydro-3H-cyclopenta[c]quinolone], the “Charge Alone” value was “Inactive” and the “Charge +C” value was “Inactive”.
